Tested on: Kibdelosporangium philippinensis (cultures A80407 and A80407.4)
Assay: Resistance to antibiotics of the producing cultures, antibiotic sensitivity discs on seeded ISP No. 2 agar
Conditions: both cultures

CC1(C)S[C@@H]2[C@H](NC(=O)Cc3ccccc3)C(=O)N2[C@H]1C(=O)O [penicillin G]
Resistance to antibiotics (10 units): resistant

oleandomycin
Resistance to antibiotics (15 μg): resistant

CC(=O)OCC1=C(C(=O)O)N2C(=O)[C@@H](NC(=O)Cc3cccs3)[C@H]2SC1 [cephalothin]
Resistance to antibiotics (30 μg): resistant

CCn1cc(C(=O)O)c(=O)c2ccc(C)nc21 [nalidixic acid]
Resistance to antibiotics (30 μg): resistant

polymixin B
Resistance to antibiotics (300 units): resistant

NC[C@H]1O[C@H](O[C@H]2[C@H](O)[C@@H](O[C@H]3O[C@H](CO)[C@@H](O)[C@H](N)[C@H]3O)[C@H](N)C[C@@H]2N)[C@H](N)C[C@@H]1O [tobramycin]
Resistance to antibiotics (10 μg): resistant

CN[C@H](CC(C)C)C(=O)N[C@H]1C(=O)N[C@@H](CC(N)=O)C(=O)N[C@H]2C(=O)N[C@H]3C(=O)N[C@H](C(=O)N[C@H](C(=O)O)c4cc(O)cc(O)c4-c4cc3ccc4O)[C@H](O)c3ccc(c(Cl)c3)Oc3cc2cc(c3O[C@@H]2O[C@H](CO)[C@@H](O)[C@H](O)[C@H]2O[C@H]2C[C@](C)(N)[C@H](O)[C@H](C)O2)Oc2ccc(cc2Cl)[C@H]1O [vancomycin]
Resistance to antibiotics (30 μg): resistant

COc1cc(Cc2cnc(N)nc2N)cc(OC)c1OC [trimethoprim]
Resistance to antibiotics (5 μg): resistant

CC[C@H]1OC(=O)[C@H](C)[C@@H](O[C@H]2C[C@@](C)(OC)[C@@H](O)[C@H](C)O2)[C@H](C)[C@@H](O[C@@H]2O[C@H](C)C[C@H](N(C)C)[C@H]2O)[C@](C)(O)C[C@@H](C)C(=O)[C@H](C)[C@@H](O)[C@]1(C)O [erythromycin]
Resistance to antibiotics (15 μg): sensitive

NC[C@@H]1O[C@H](O[C@H]2[C@@H](O)[C@H](O[C@@H]3[C@@H](O)[C@H](N)C[C@H](N)[C@H]3O[C@H]3O[C@H](CN)[C@@H](O)[C@H](O)[C@H]3N)O[C@@H]2CO)[C@H](N)[C@@H](O)[C@@H]1O [neomycin]
Resistance to antibiotics (30 μg): sensitive

O=C(N[C@H](CO)[C@H](O)c1ccc([N+](=O)[O-])cc1)C(Cl)Cl [chloramphenicol]
Resistance to antibiotics (30 μg): sensitive

gentamycin
Resistance to antibiotics (10 μg): sensitive

Nc1ccc(S(=O)(=O)Nc2ncccn2)cc1 [sulfadiazine]
Resistance to antibiotics (300 units): resistant

C1N2CN3CN1CN(C2)C3 [mandelamine]
Resistance to antibiotics (3 μg): sensitive

CO[C@H]1/C=C/O[C@@]2(C)Oc3c(C)c(O)c4c(O)c(c(/C=N/N5CCN(C)CC5)c(O)c4c3C2=O)NC(=O)/C(C)=C\C=C\[C@H](C)[C@H](O)[C@@H](C)[C@@H](O)[C@@H](C)[C@H](OC(C)=O)[C@@H]1C [rifampin]
Resistance to antibiotics (5 μg): sensitive

CO[C@@H]1[C@@H](OC(N)=O)[C@@H](O)[C@H](Oc2ccc3c(O)c(NC(=O)c4ccc(O)c(CC=C(C)C)c4)c(=O)oc3c2C)OC1(C)C [novobiocin]
Resistance to antibiotics (30 μg): sensitive

CN(C)C1C(=O)C(C(N)=O)=C(O)C2(O)C(=O)C3=C(O)c4c(O)cccc4C(C)(O)C3CC12 (stereo not drawn) [tetracycline]
Resistance to antibiotics (10 μg): sensitive

CCC[C@@H]1C[C@@H](C(=O)N[C@@H]([C@H]2O[C@H](SC)[C@H](O)[C@@H](O)[C@H]2O)[C@@H](C)O)N(C)C1 [lincomycin]
Resistance to antibiotics (2 μg): resistant

From US5213797A, “A80407 antibiotics” (Eli Lilly and Company, priority 1990, dated 1993)
